# Results published in patent US12187721B2, “Protein tyrosine phosphatase inhibitors” (Array BioPharma Inc., priority 2018, dated 2025).
# Biological target: T1, full-length SHP2 (His6-tagged SHP2(2-527)) (Homo sapiens, UniProt Q06124)
# T1 construct: His6-tagged SHP2(2-527); His6; made in house; host or cells: E. coli
# Experiment: SHP2 Enzymatic Assay (fluorescence intensity kinetic assay, DiFMUP hydrolysis)
# Assay type: biochemical
# Conditions: not given
# How it was run: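 1 nM His6-SHP2(2-527), activated by 1 μM bis-phosphopeptide, hydrolysed 50 μM DiFMUP in 25 mM HEPES pH 7.4 with 1 mM DTT, 50 mM KCl and 2% DMSO. DiFMU fluorescence (Ex 355/Em 460 nm) was read kinetically for 15 min at ambient temperature.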
# T1 sequence (Q06124 2-527): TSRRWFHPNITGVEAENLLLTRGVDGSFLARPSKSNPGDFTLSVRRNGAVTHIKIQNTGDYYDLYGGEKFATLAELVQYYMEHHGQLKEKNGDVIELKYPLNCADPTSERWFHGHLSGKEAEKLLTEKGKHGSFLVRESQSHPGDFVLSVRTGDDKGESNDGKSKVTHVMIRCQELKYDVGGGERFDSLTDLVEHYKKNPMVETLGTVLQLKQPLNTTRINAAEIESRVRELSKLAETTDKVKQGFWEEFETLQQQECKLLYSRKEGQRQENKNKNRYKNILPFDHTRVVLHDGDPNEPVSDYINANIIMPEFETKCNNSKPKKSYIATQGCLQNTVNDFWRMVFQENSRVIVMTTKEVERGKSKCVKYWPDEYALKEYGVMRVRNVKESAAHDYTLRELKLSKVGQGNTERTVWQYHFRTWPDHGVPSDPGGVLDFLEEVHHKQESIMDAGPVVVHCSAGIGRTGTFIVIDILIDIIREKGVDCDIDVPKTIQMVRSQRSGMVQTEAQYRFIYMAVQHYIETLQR
row,SMILES,IC50 [nM]
1,"C[C@@H]1OCC2(CCN(c3cnc4nc(Sc5ccnc(N)c5C(F)(F)F)ccc4n3)CC2)[C@@H]1N [Example 136, (3S,4S)-8-(6-((2-amino-3-(trifluoromethyl)pyridin-4-yl)thio)pyrido[2,3-b]pyrazin-2-yl)-3-methyl-2-oxa-8-azaspiro[4.5]decan-4-amine]",160
2,CC(C)(C)OC(=O)N[C@H]1[C@@H]2C[C@H]1CN(c1cnc3nc(Sc4ccnc(N)c4Cl)ccc3n1)C2 [Example 138],574
3,"Cc1c[nH]c2nccc(Sc3ccc4nc(N5CCC6(CC5)CO[C@@H](C)[C@H]6N)cnc4n3)c12 [Example 139, (3S,4S)-3-methyl-8-(6-((3-methyl-1H-pyrrolo[2,3-b]pyridin-4-yl)thio)pyrido[2,3-b]pyrazin-2-yl)-2-oxa-8-azaspiro[4.5]decan-4-amine]",93
4,"C[C@@H]1OCC2(CCN(c3cnc4nc(Sc5cc(N)nc6[nH]ccc56)ccc4n3)CC2)[C@@H]1N [Example 140, (3S,4S)-8-(6-((6-amino-1H-pyrrolo[2,3-b]pyridin-4-yl)thio)pyrido[2,3-b]pyrazin-2-yl)-3-methyl-2-oxa-8-azaspiro[4.5]decan-4-amine]",75
5,"C[C@@H]1OCC2(CCN(c3cnc4nc(Sc5c(F)cnc6[nH]ccc56)ccc4n3)CC2)[C@@H]1N [Example 141, (3S,4S)-8-(6-((5-fluoro-1H-pyrrolo[2,3-b]pyridin-4-yl)thio)pyrido[2,3-b]pyrazin-2-yl)-3-methyl-2-oxa-8-azaspiro[4.5]decan-4-amine]",74
6,"CC1CCN(c2cnc3nc(Sc4ccnc(N)c4Cl)ccc3n2)CC1 [Example 143, 3-chloro-4-((2-(4-methylpiperidin-1-yl)pyrido[2,3-b]pyrazin-6-yl)thio)pyridin-2-amine]",1760
7,"C[C@@H]1OCC2(CCN(c3cnc4nc(Sc5cc(N)ncc5Cl)ccc4n3)CC2)[C@@H]1N [Example 144, (3S,4S)-8-(6-((2-amino-5-chloropyridin-4-yl)thio)pyrido[2,3-b]pyrazin-2-yl)-3-methyl-2-oxa-8-azaspiro[4,5]decan-4-amine]",89
8,"CNc1nccc(Sc2ccc3nc(N4CCCC(C)(N)CC4)cnc3n2)c1Cl (stereo not drawn) [Example 146, 1-(6-((3-chloro-2-(methylamino)pyridin-4-yl)thio)pyrido[2,3-b]pyrazin-2-yl)-4-methylazepan-4-amine]",89
9,"Cc1nccc(Sc2ccc3nc(N4CCCC(C)(N)CC4)cnc3n2)c1Cl (stereo not drawn) [Example 147, 1-(6-((3-chloro-2-methylpyridin-4-yl)thio)pyrido[2,3-b]pyrazin-2-yl)-4-methylazepan-4-amine]",50
10,"CC1(N)CCN(c2cnc3nc(-c4cccc(F)c4Cl)ccc3n2)CC1 [Example 152, 1-(6-(2-chloro-3-fluorophenyl)pyrido[2,3-b]pyrazin-2-yl)-4-methylpiperidin-4-amine]",30
11,"COc1c(Sc2ccc3nc(N4CCC5(CC4)CO[C@@H](C)[C@H]5N)cnc3n2)ccnc1N [Example 153, (3S,4S)-8-(6-((2-amino-3-methoxypyridin-4-yl)thio)pyrido[2,3-b]pyrazin-2-yl)-3-methyl-2-oxa-8-azaspiro [4.5] decan-4-amine]",164
12,"Nc1nccc(Sc2ccc3nc(N4CCCC45CC(N)C5)cnc3n2)c1Cl (stereo not drawn) [Example 154, 5-(6-((2-amino-3-chloropyridin-4-yl)thio)pyrido[2,3-b]pyrazin-2-yl)-5-azaspiro[3.4]octan-2-amine]",1210
13,COc1cccc2c1CC1(CCN(c3cnc4nc(Sc5ccnc(N)c5Cl)ccc4n3)CC1)[C@@H]2N [Example 155],45
14,"Cc1nccc(Sc2ccc3nc(N4CCC5(CC4)Cc4cc(O)ccc4[C@H]5N)cnc3n2)c1Cl [Example 156, (S)-1-amino-1′-(6-((3-chloro-2-methylpyridin-4-yl)thio)pyrido[2,3-b]pyrazin-2-yl)-1,3-dihydrospiro[indene-2,4′-piperidin]-5-ol]",32
15,"C[C@@H]1OCC2(CCN(c3cnc4nc(Sc5ccnc6c5CCC6O)ccc4n3)CC2)[C@@H]1N (stereo partly drawn) [Example 157, 4-((2-((3S,4S)-4-amino-3-methyl-2-oxa-8-azaspiro[4.5]decan-8-yl)pyrido[2,3-b]pyrazin-6-yl)thio)-6,7-dihydro-5H-cyclopenta[b]pyridin-7-ol]",282
16,"Nc1nccc(Sc2ccc3nc(N4CCC5(CC4)Cc4cccnc4C5N)cnc3n2)c1Cl (stereo not drawn) [Example 158, 1′-(6-((2-amino-3-chloropyridin-4-yl)thio)pyrido[2,3-b]pyrazin-2-yl)-5,7-dihydrospiro[cyclopenta[b]pyridine-6,4′-piperidin]-7-amine]",106
17,"Nc1nccc(Sc2ccc3nc(N4CCC5(CC4)Cc4c(Cl)cccc4[C@H]5N)cnc3n2)c1Cl [Example 159, (S)-1′-(6-((2-amino-3-chloropyridin-4-yl)thio)pyrido[2,3-b]pyrazin-2-yl)-4-chloro-1,3-dihydrospiro[indene-2,4′-piperidin]-1-amine]",50
18,"CNc1nccc(Sc2ccc3nc(N4CCC(C)(N)CC4)cnc3n2)c1Cl [Example 161, 4-((2-(4-amino-4-methylpiperidin-1-yl)pyrido[2,3-b]pyrazin-6-yl)thio)-3-chloro-N-methylpyridin-2-amine]",45
19,"N[C@@H]1c2ccccc2CC12CCN(c1cnc3nc(Sc4cccnc4C(F)(F)F)ccc3n1)CC2 [Example 162, (S)-1′-(6-((2-(trifluoromethyl)pyridin-3-yl)thio)pyrido[2,3-b]pyrazin-2-yl)-1,3-dihydrospiro[indene-2,4′-piperidin]-1-amine]",39
20,"Nc1nccc(Sc2ccc3nc(N4CC5(Cc6ccccc6[C@@H]5N)C4)cnc3n2)c1Cl [Example 164, (S)-1-(6-((2-amino-3-chloropyridin-4-yl)thio)pyrido[2,3-b]pyrazin-2-yl)-1′,3′-dihydrospiro[azetidine-3,2′-inden]-1′-amine]",203
21,"Nc1nccc(Sc2ccc3nc(N4CCC5(CC4)c4ccccc4[C@H]5N)cnc3n2)c1Cl [Example 165, (S)-1′-(6-((2-amino-3-chloropyridin-4-yl)thio)pyrido[2,3-b]pyrazin-2-yl)spiro[bicyclo[4.2.0]octane-7,4′-piperidine]-1(6),2,4-trien-8-amine]",16000
22,"Nc1nccc(Sc2ccc3nc(N4CCC5(CC4)c4ccccc4[C@@H]5N)cnc3n2)c1Cl [Example 166, (R)-1′-(6-((2-amino-3-chloropyridin-4-yl)thio)pyrido[2,3-b]pyrazin-2-yl)spiro[bicyclo[4.2.0]octane-7,4′-piperidine]-1(6),2,4-trien-8-amine]",3990
23,"Nc1nccc(Sc2ccc3nc(N4CCC5(CC4)Cc4ncccc4[C@@H]5N)cnc3n2)c1Cl [Example 167, (R)-1′-(6-((2-amino-3-chloropyridin-4-yl)thio)pyrido[2,3-b]pyrazin-2-yl)-5,7-dihydrospiro[cyclopenta[b]pyridine-6,4′-piperidin]-5-amine]",50
24,"Cc1cccc2c1CC1(CCN(c3cnc4nc(Sc5ccnc(N)c5Cl)ccc4n3)CC1)[C@H]2N [Example 168, (R)-1′-(6-((2-amino-3-chloropyridin-4-yl)thio)pyrido[2,3-b]pyrazin-2-yl)-4-methyl-1,3-dihydrospiro[indene-2,4′-piperidin]-1-amine]",54
25,"Nc1nccc(Sc2ccc3nc(N4CCC5(CC4)Cc4cc(Cl)ccc4[C@@H]5N)cnc3n2)c1Cl [Example 170, (R)-1′-(6-((2-amino-3-chloropyridin-4-yl)thio)pyrido[2,3-b]pyrazin-2-yl)-5-chloro-1,3-dihydrospiro[indene-2,4′-piperidin]-1-amine]",62
26,"COc1nc(N)cc(Sc2ccc3nc(N4CCC5(CC4)Cc4ccccc4[C@H]5N)cnc3n2)c1Cl [Example 171, (S)-1′-(6-((6-amino-3-chloro-2-methoxypyridin-4-yl)thio)pyrido[2,3-b]pyrazin-2-yl)-1,3-dihydrospiro[indene-2,4′-piperidin]-1-amine]",56
27,"N#Cc1ccc2ncc(Sc3ccc4nc(N5CCC6(CC5)Cc5ccccc5[C@H]6N)cnc4n3)n2c1 [Example 172, (S)-3-((2-(1-amino-1,3-dihydrospiro[indene-2,4′-piperidin]-1′-yl)pyrido[2,3-b]pyrazin-6-yl)thio)imidazo[1,2-a]pyridine-6-carbonitrile]",112
28,"CCCC1(N)CCN(c2cnc3nc(Sc4ccnc(N)c4Cl)ccc3n2)CC1 [Example 173, 4-((2-(4-amino-4-propylpiperidin-1-yl)pyrido[2,3-b]pyrazin-6-yl)thio)-3-chloropyridin-2-amine]",237
29,"Cc1nccc(Sc2ccc3nc(N4CCC5(CC4)CO[C@@H](C)[C@H]5N)cnc3n2)c1C [Example 174, (3S,4S)-8-(6-((2,3-dimethylpyridin-4-yl)thio)pyrido[2,3-b]pyrazin-2-yl)-3-methyl-2-oxa-8-azaspiro[4.5]decan-4-amine]",335
30,"C[C@@H]1OCC2(CCN(c3cnc4nc(Sc5ccnc(N)c5F)ccc4n3)CC2)[C@@H]1N [Example 175, (3S,4S)-8-(6-((2-amino-3-fluoropyridin-4-yl)thio)pyrido[2,3-b]pyrazin-2-yl)-3-methyl-2-oxa-8-azaspiro[4.5]decan-4-amine]",1230

# Same assay, conditions: full-length SHP2 with 1 μM activating peptide, 50 μM DiFMUP; single assay or mean of multiple assays; read-out: Biological Example 1 IC50
row,SMILES,IC50 [nM]
1,Nc1nccc(Sc2ccc3nc(N4C[C@H]5C[C@@H](C4)[C@H]5N)cnc3n2)c1Cl [Example 137],64
2,"Nc1nccc(Sc2ccc3nc(N4CCC5(CC4)Cc4cc(F)ccc4[C@H]5N)cnc3n2)c1Cl [Example 145, (S)-1′-(6-((2-amino-3-chloropyridin-4-yl)thio)pyrido[2,3-b]pyrazin-2-yl)-5-fluoro-1,3-dihydrospiro[indene-2,4′-piperidin]-1-amine]",27
3,"Nc1nccc(Sc2ccc3nc(N4CCC5(CC4)C[C@@H](O)C[C@H]5N)cnc3n2)c1Cl [Example 160, (2R,4R)-4-amino-8-(6-((2-amino-3-chloropyridin-4-yl)thio)pyrido[2,3-b]pyrazin-2-yl)-8-azaspiro[4.5]decan-2-ol]",60
